Results: patent publication US11919901B2 (Syndax Pharmaceuticals, Inc., priority 2021, dated 2024)

Experiments:
hERG = hERG (Homo sapiens (Human), UniProt Q12809); experiment: Patch clamp assay (hERG tail currents, whole-cell); type: cell-based; conditions: hERG transfected HEK 293 cells; for hERG % Remaining 30 μM: 30 μM compound; for hERG % Remaining 10 μM: 10 μM compound
Menin-MLL = Menin-MLL (Homo sapiens (Human), UniProt O00255); experiment: Determination of binding constants (Ki) to Menin-MLL (HTRF); conditions: HTRF, 0.25 nM H-FL-Menin, 3.2 nM FITC-MLL-4-43, 24 hr incubation; for Ki: read-out: Menin-MLL Ki HTRF Assay: Ki
Chain of Menin-MLL (O00255 whole entry): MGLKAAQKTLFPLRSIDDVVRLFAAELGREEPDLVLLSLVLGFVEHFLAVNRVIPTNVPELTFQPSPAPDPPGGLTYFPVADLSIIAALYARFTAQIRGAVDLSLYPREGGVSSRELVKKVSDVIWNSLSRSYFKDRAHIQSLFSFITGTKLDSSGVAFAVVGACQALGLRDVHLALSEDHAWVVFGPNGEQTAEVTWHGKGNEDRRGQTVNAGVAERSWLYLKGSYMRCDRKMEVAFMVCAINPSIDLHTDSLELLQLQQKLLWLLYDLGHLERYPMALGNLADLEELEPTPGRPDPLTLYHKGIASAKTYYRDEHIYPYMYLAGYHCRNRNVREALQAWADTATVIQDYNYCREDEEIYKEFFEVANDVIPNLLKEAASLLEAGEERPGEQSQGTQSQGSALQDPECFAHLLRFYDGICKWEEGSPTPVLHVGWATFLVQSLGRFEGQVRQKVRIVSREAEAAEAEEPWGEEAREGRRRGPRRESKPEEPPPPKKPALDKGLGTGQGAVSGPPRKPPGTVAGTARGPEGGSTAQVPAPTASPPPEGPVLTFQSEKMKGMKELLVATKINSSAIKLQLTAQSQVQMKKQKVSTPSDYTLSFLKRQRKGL

Chain of hERG (Q12809 whole entry): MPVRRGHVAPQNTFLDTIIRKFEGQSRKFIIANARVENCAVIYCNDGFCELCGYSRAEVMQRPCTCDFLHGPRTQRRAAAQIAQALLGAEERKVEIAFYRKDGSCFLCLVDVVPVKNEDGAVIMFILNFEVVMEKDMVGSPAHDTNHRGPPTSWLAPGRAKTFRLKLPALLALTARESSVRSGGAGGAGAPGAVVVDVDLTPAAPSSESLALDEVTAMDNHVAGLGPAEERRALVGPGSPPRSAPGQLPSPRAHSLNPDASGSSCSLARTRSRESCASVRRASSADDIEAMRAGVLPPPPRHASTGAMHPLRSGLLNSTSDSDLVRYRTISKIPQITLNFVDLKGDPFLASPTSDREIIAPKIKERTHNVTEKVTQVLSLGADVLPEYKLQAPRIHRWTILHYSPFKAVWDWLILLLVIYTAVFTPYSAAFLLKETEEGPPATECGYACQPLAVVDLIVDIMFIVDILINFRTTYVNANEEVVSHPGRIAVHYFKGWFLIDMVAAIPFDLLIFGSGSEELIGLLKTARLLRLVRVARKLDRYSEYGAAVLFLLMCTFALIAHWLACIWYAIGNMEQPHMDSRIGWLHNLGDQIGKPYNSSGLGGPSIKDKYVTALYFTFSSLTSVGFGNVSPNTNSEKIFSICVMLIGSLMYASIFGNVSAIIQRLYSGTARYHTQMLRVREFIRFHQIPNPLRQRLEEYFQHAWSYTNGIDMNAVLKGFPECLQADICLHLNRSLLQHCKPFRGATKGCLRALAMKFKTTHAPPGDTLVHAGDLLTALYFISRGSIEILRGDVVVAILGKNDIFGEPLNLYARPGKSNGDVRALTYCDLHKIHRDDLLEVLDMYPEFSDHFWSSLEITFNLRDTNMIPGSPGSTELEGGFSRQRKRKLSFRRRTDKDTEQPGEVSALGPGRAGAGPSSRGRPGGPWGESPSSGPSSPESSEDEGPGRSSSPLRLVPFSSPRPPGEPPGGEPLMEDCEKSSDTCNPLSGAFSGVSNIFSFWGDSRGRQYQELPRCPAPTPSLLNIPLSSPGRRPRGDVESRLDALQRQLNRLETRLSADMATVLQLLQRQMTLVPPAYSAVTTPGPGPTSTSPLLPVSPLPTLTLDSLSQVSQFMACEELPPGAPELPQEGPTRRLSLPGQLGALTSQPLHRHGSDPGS

Row | SMILES | hERG % Remaining 30 μM (hERG) | Ki (Menin-MLL) [nM] | hERG % Remaining 10 μM (hERG) | EC50 (Menin-MLL) [nM] | IC50 (hERG) [nM]
1 | Cc1nn(C)cc1S(=O)(=O)N[C@@H]1CC[C@@H](CN2CCC3(CC2)CN(c2ncncc2Oc2ccc(F)cc2C(=O)N(CC(F)F)C(C)C)C3)OC1 [Compound 105, N-(2,2-Difluoroethyl)-2-((4-(7-(((2S,5R)-5-((1,3-dimethyl-1H-pyrazole)-4-sulfonamido)tetrahydro-2H-pyran-2-yl)methyl)-2,7-diazaspiro[3.5]nonan-2-yl)pyrimidin-5-yl)oxy)-5-fluoro-N-isopropylbenzamide] | +++ (“+++” means ≥66%) | < 1 |  |  | 
2 | CC(C)N(CC(F)(F)F)C(=O)c1cc(F)ccc1Oc1cncnc1N1CC2(CCN(C[C@@H]3CC[C@@H](NS(=O)(=O)N(C)C)CO3)CC2)C1 [Compound 107, 2-((4-(7-(((2S,5R)-5-((N,N-Dimethylsulfamoyl)amino)tetrahydro-2H-pyran-2-yl)methyl)-2,7-diazaspiro[3.5]nonan-2-yl)pyrimidin-5-yl)oxy)-5-fluoro-N-isopropyl-N-(2,2,2-trifluoroethyl)benzamide] | ++ (“++” means ≥33% and <66%) | < 1 | +++ (“+++” means ≥66%) | < 50 | 
3 | CC(C)N(C(=O)c1cc(F)ccc1Oc1cncnc1N1CC2(CCN(C[C@@H]3CC[C@@H](NS(=O)(=O)C4CC4)CO3)CC2)C1)C1CC(F)(F)C1 [Compound 111, 2-((4-(7-(((2S,5R)-5-(Cyclopropanesulfonamido)tetrahydro-2H-pyran-2-yl)methyl)-2,7-diazaspiro[3.5]nonan-2-yl)pyrimidin-5-yl)oxy)-N-(3,3-difluorocyclobutyl)-5-fluoro-N-isopropylbenzamide] | + (“+” means <33%) | < 1 | ++ (“++” means ≥33% and <66%) | < 50 | 
4 | CC(C)N(C(=O)c1cc(F)ccc1Oc1cncnc1N1CC2(CCN(C[C@@H]3CC[C@@H](NS(=O)(=O)N(C)C)CO3)CC2)C1)C1CC(F)(F)C1 [Compound 113, N-(3,3-Difluorocyclobutyl)-2-((4-(7-(((2S,5R)-5-((N,N-dimethylsulfamoyl)amino)tetrahydro-2H-pyran-2-yl)methyl)-2,7-diazaspiro[3.5]nonan-2-yl)pyrimidin-5-yl)oxy)-5-fluoro-N-isopropylbenzamide] | ++ (“++” means ≥33% and <66%) | < 1 | +++ (“+++” means ≥66%) | < 50 | 
5 | CCN(CC)S(=O)(=O)N[C@@H]1CC[C@@H](CN2CCC3(CC2)CN(c2ncncc2Oc2ccc(F)cc2C(=O)N(C(C)C)C2CC(F)(F)C2)C3)OC1 [Compound 114, 2-((4-(7-(((2S,5R)-5-((N,N-Diethylsulfamoyl)amino)tetrahydro-2H-pyran-2-yl)methyl)-2,7-diazaspiro[3.5]nonan-2-yl)pyrimidin-5-yl)oxy)-N-(3,3-difluorocyclobutyl)-5-fluoro-N-isopropylbenzamide] | + (“+” means <33%) | < 1 | + (“+” means <33%) | < 50 | 
6 | CC(C)N(C(=O)c1cc(F)ccc1Oc1cncnc1N1CC2(CCN(C[C@@H]3CC[C@@H](NS(=O)(=O)N4CCC4)CO3)CC2)C1)C1CC(F)(F)C1 [Compound 118, 2-((4-(7-(((2S,5R)-5-(Azetidine-1-sulfonamido)tetrahydro-2H-pyran-2-yl)methyl)-2,7-diazaspiro[3.5]nonan-2-yl)pyrimidin-5-yl)oxy)-N-(3,3-difluorocyclobutyl)-5-fluoro-N-isopropylbenzamide] | + (“+” means <33%) | < 1 | ++ (“++” means ≥33% and <66%) |  | 
7 | CC(C)N(C(=O)c1cc(F)ccc1Oc1cncnc1N1CC2(CCN(C[C@@H]3CC[C@@H](NS(=O)(=O)N(C)C(C)C)CO3)CC2)C1)C1CC(F)(F)C1 [Compound 119, N-(3,3-Difluorocyclobutyl)-5-fluoro-N-isopropyl-2-((4-(7-(((2S,5R)-5-((N-isopropyl-N-methylsulfamoyl)amino)tetrahydro-2H-pyran-2-yl)methyl)-2,7-diazaspiro[3.5]nonan-2-yl)pyrimidin-5-yl)oxy)benzamide] | + (“+” means <33%) | < 1 |  |  | 
8 | C[C@@H]1COC[C@@H](C)N1C(=O)c1cc(F)ccc1Oc1cncnc1N1CC2(CCN(C[C@@H]3CC[C@@H](NS(=O)(=O)c4ccccc4)CO3)CC2)C1 [Compound 120, N-((3R,6S)-6-((2-(5-(2-((3R,5R)-3,5-Dimethylmorpholine-4-carbonyl)-4-fluorophenoxy)pyrimidin-4-yl)-2,7-diazaspiro[3.5]nonan-7-yl)methyl)tetrahydro-2H-pyran-3-yl)benzenesulfonamide] | ++ (“++” means ≥33% and <66%) | < 1 | +++ (“+++” means ≥66%) | < 50 | 
9 | C[C@@H]1COC[C@@H](C)N1C(=O)c1cc(F)ccc1Oc1cncnc1N1CC2(CCN(C[C@@H]3CC[C@@H](NS(=O)(=O)N4CCC4)CO3)CC2)C1 [Compound 121, N-((3R,6S)-6-((2-(5-(2-((3R,5R)-3,5-Dimethylmorpholine-4-carbonyl)-4-fluorophenoxy)pyrimidin-4-yl)-2,7-diazaspiro[3.5]nonan-7-yl)methyl)tetrahydro-2H-pyran-3-yl)azetidine-1-sulfonamide] | +++ (“+++” means ≥66%) | < 1 |  |  | 
10 | Cc1nc(S(=O)(=O)N[C@@H]2CC[C@@H](CN3CCC4(CC3)CN(c3ncncc3Oc3ccc(F)cc3C(=O)N3[C@H](C)COC[C@H]3C)C4)OC2)cs1 [Compound 122, N-((3R,6S)-6-((2-(5-(2-((3R,5R)-3,5-Dimethylmorpholine-4-carbonyl)-4-fluorophenoxy)pyrimidin-4-yl)-2,7-diazaspiro[3.5]nonan-7-yl)methyl)tetrahydro-2H-pyran-3-yl)-2-methylthiazole-4-sulfonamide] | +++ (“+++” means ≥66%) | < 1 |  |  | ≥ 50000
11 | C[C@@H]1COC[C@@H](C)N1C(=O)c1cc(F)ccc1Oc1cncnc1N1CC2(CCN(C[C@@H]3CC[C@@H](NS(=O)(=O)N(C)C)CO3)CC2)C1 [Compound 123, {[(3R,6S)-6-{[2-(5-{2-[(3R,5R)-3,5-Dimethylmorpholine-4-carbonyl]-4-fluorophenoxy}pyrimidin-4-yl)-2,7-diazaspiro[3.5]nonan-7-yl]methyl}oxan-3-yl]sulfamoyl}dimethylamine] | +++ (“+++” means ≥66%) | < 1 |  |  | 
12 | CCNS(=O)(=O)N[C@@H]1CC[C@@H](CN2CCC3(CC2)CN(c2ncncc2Oc2ccc(F)cc2C(=O)N2[C@H](C)COC[C@H]2C)C3)OC1 [Compound 125, {[(3R,6S)-6-{[2-(5-{2-[(3R,5R)-3,5-Dimethylmorpholine-4-carbonyl]-4-fluorophenoxy}pyrimidin-4-yl)-2,7-diazaspiro[3.5]nonan-7-yl]methyl}oxan-3-yl]sulfamoyl}(ethyl)amine] | +++ (“+++” means ≥66%) | < 1 |  |  | 
13 | C[C@@H]1COC[C@H](C)N1C(=O)c1cc(F)ccc1Oc1cncnc1N1CC2(CCN(C[C@@H]3CC[C@@H](NS(=O)(=O)c4ccccc4)CO3)CC2)C1 [Compound 130, N-((3R,6S)-6-((2-(5-(2-((3S,5R)-3,5-Dimethylmorpholine-4-carbonyl)-4-fluorophenoxy)pyrimidin-4-yl)-2,7-diazaspiro[3.5]nonan-7-yl)methyl)tetrahydro-2H-pyran-3-yl)benzenesulfonamide] | ++ (“++” means ≥33% and <66%) | < 1 | +++ (“+++” means ≥66%) | < 50 | 
